Test results taken from EP0333356A2, “Hirudin peptides” (BIOGEN, INC., priority 1988, dated 1989).

What was measured:
bovine plasma thrombin = target: T1, bovine plasma thrombin (Bos taurus, UniProt P00735); assay: thrombin-catalyzed hydrolysis of tosyl-Gly-Pro-Arg-p-nitroanilide (Chromozym TH); type: biochemical; details: 4.2 x 10⁻⁶ M to 2.1 x 10⁻⁷ M peptide
T1 construct: bovine plasma thrombin, Calbiochem, Behring Diagnostics, La Jolla, CA; purchased Calbiochem, Behring Diagnostics, La Jolla, CA; host or cells: bovine plasma
Experimental: We analyzed the hirudin peptides of this invention for inhibition of thrombin-catalyzed hydrolysis of the tripeptidyl p-nitroanilide substrate tosyl-Gly-Pro-Arg-p-nitroanilide (Chromozym TH, Boehringer-Mannheim, Indianapolis, In.) spectrophotometrically at 420 nm on a Cary 219 double-beam spectrophotometer. Reactions were prepared by mixing 10 µl of thrombin solution (bovine plasma thrombin, Calbiochem, Behring Diagnostics, La Jolla, CA, 0.1 mg/ml in 0.1 M Tris-HCl, pH 7.4, 0.15 M NaCl) with 1.0 ml of 0.1 M Tris-HCl, pH 7.4, 0.15 M NaCl buffer. We then added 25 µl of substrate solution (4 mg/ml tosyl-Gly-Pro-Arg-p-nitroanilide in the above buffer) and varying amounts of hirudin₄₅₋₆₄ (as prepared in Example 4) from a 1.0 mg/ml stock solution to a final fixed volume of 1.035 ml, with final concentrations of thrombin and substrate of 2.8 x 10⁻⁸ M and 1.4 x 10⁻⁴ M, respectively.

thrombin = target: T2, thrombin (Homo sapiens, UniProt P00734); assay: activated partial thromboplastin time (APTT) assay of pooled normal human plasma; type: biochemical; details: result in words
T2 construct: pooled, normal human plasma (George King Biomedical, Inc., Overland Park, Kansas); tissue George King Biomedical, Inc; host or cells: pooled normal human plasma
Experimental: Anticoagulant activity was determined by assaying APTT of pooled, normal human plasma (George King Biomedical, Inc., Overland Park, Kansas) (diluted 4:1, v/v, plasma:water) with a Coag-A-Mate 2001 instrument (General Diagnostics, Inc.. Morris Plains, New Jersey). Specifically, diluted plasma was mixed with stock solutions of hirudin peptides at concentrations ranging from 750 µg/ml in water, for non-sulfated hirudin peptides, to 35 µg/ml in water for sulfated hirudin peptides. The plasma and hirudin peptides were mixed to a final volume of 125 µl prior to each APTT determination.
We began the APTT assay by adding 92 µl of a crude thromboplastin suspension (General Diagnostics) and 100 µl of 0.3 M calcium chloride reagent to each well of a Coag-A-Mate dish (General Diagnostics) per APTT determination, to a final volume of assay mixture per well of 317 µl. The calcium chloride was prepared fresh prior to each assay. Activation times were constant at 180 sec.

Molecule | inhibitory effect on thrombin-catalyzed hydrolysis of the artificial substrate (bovine plasma thrombin) | increase in clotting time (APTT) (thrombin) | increase in clotting time (APTT) (thrombin; listed as hirudin₅₃₋₆₂)
CC[C@H](C)[C@H](NC(=O)[C@H](CCC(=O)O)NC(=O)[C@H](CCC(=O)O)NC(=O)[C@H](Cc1ccccc1)NC(=O)[C@H](CC(=O)O)NC(=O)CNC(=O)[C@H](CC(N)=O)NC(=O)[C@H](CC(N)=O)NC(=O)[C@H](Cc1c[nH]cn1)NC(=O)[C@H](CO)NC(=O)[C@H](CCC(=O)O)NC(=O)[C@@H]1CCCN1C(=O)[C@H](CC(N)=O)NC(=O)[C@@H]1CCCN1C(=O)[C@@H](N)[C@@H](C)O)C(=O)N1CCC[C@H]1C(=O)N[C@@H](CCC(=O)O)C(=O)N[C@@H](CCC(=O)O)C(=O)N[C@@H](Cc1ccc(O)cc1)C(=O)N[C@@H](CC(C)C)C(=O)O [hirudin₄₅₋₆₄] | no measurable inhibitory effect |  | 
H-NGDFEEIPEE-OH [des(Tyr-Leu) hirudin₅₃₋₆₂] |  | no comparative increase in clotting time | no reasonable inhibitory activity
